Literature values, collected in patent publication US20210134402A1, “METHODS AND SYSTEMS FOR PREDICTING SUCCESS RATES OF CLINICAL TRIALS” (THE TRUSTEES OF COLUMBIA UNIVERSITY IN THE CITY OF NEW YORK, priority 2018, published 2021).

Settings: trial in follicular lymphoma

For `Nc1ccccc1NC(=O)c1ccc(CNc2nccc(-c3cccnc3)n2)cc1` [mocetinostat], the “side effects observed in the trial” value is given as “anaemia, neutropenia, nausea, and diarrhea” and the trial status is given as “put on hold due to toxicity concerns”.
